Test results: patent US20240299328A1, “COMPOSITIONS COMPRISING 15-HEPE AND METHODS OF TREATING AND/OR PREVENTING HEMATOLOGIC DISORDERS AND RELATED DISEASES” (Afimmune Limited, priority 2023, published 2024)
Like-named read-outs stand apart in the source and are kept apart here.

Legend:
[1] = system: adhesion of SCD patient RBCs to heme-activated HUVECs; assay: Endothelialized microfluidic system: SCD patient RBC adhesion to heme-activated HUVECs; type: cell-based, human; details: 6 hours, n=7; for adhesion of RBCs to heme-activated endothelium: treatment of RBCs; for adhesion of SCD patient RBCs to endothelium: treatment of heme-activated HUVECs
Description: Whole blood samples were collected from 7 SCD subjects with HbSS genotype at University Hospitals Cleveland Medical Center, Cleveland, OH, USA. RBCs were isolated after centrifugation of whole blood collected in EDTA and were resuspended in basal cell culture medium (EBM; Lonza, Morristown, NJ, USA) with 10 mM of HEPES to reach 20% hematocrit. Human umbilical vein endothelial cells (HUVECs; Lonza, Morristown, NJ, USA) were seeded within the microfluidic channels and cultured for at least 72 hours at 15 dyne/cm2 prior to experiments. Tested concentrations of 15(S)-HEPE were selected based on clinical pharmacokinetics for 15(S)-HEPE at 2 g/day and 4 g/day Epeleuton doses. Incubation of RBCs or HUVECs with 15(S)-HEPE was conducted at 37° C. for 6 hours. In one experiment 15(S)-HEPE-treated tor vehicle-treated RBCs flowed on untreated HUVECs and in the second experiment untreated RBCs flowed on 15(S)-HEPE-treated or vehicle-treated […]. In both cases a short-term acute activation was conducted where RBCs were supplemented with 40 μM heme and injected through the microfluidic channels for 15 minutes. Non-adherent RBCs were washed with basal cell culture medium. Phase-contrast images of the remaining RBCs were recorded using inverted microscope (DMi8 Leica Microsystems Inc. Deerfield, IL, USA) and the images were analyzed based on previous published methods. Statistical significance was assessed using paired t-test

UUO mice [2] = type: in vivo
Description: UUO Surgery: On day 0 of the study, UUO surgery was performed on mice under pentobarbital sodium anesthesia. The mouse's hair was first shaved and then abdomen cut open to exteriorize the mouse's left ureter. The ureter was ligated 4-0 nylon sutures at two points. The mouse's peritoneum and skin were then closed with sutures, and the mouse transferred to a clean cage until recovered from the anesthesia. Sham operated mice had their left ureter exposed but not ligated. […]
Animals: Seven-week-old female C57BL/6 mice (i.e., animals) were obtained and were housed and fed with a normal diet under controlled conditions. The animals were maintained in a specific-pathogen free (SPF) facility under controlled conditions of temperature (e.g., 23±2° C.), humidity (e.g., 45±10%), lighting (e.g., 12-hour artificial light and dark cycles; light from 8:00 to 20:00) and air exchange. A high pressure was maintained in the experimental room to prevent contamination of the facility. The animals were housed in TPX cages with a maximum of 4 mice per cage. Sterilized Paper-Clean was used for bedding and replaced once a week. Sterilized solid normal diet was provided ad libitum, being placed in a metal lid on the top of the cage. Pure water was also provided ad libitum from a water bottle equipped with a rubber stopper and a sipper tube. Water bottles were replaced once a week, cleaned, and sterilized in an autoclave and reused. Mice were identified by ear punch and each cage was labeled with a specific identification code.
Animal Monitoring and Sacrifice: The viability, clinical signs and behavior for the mice were monitored daily. Individual body weight was measured daily before treatment during the treatment period. […] The animals were sacrificed by exsanguination through direct cardiac puncture under isoflurane anesthesia at Day 14.

UUO mice [3] = assay: UUO study: Sirius red staining, kidney fibrosis area; type: in vivo
Description: Histopathological analysis: To visualize collagen deposition, kidney sections were stained using picro-Sirius red solution. For quantification of interstitial fibrosis area, bright field images in the corticomedullary region were captured using a digital camera at 200-fold magnification, and the positive areas in 5 fields/section were measured.

[4] = system: α-SMA, TIMP-1, TGF-β and Collagen Type 1 mRNA; assay: UUO study: quantitative RT-PCR of kidney; type: in vivo; details: UUO mice kidney, normalized to 36B4, Day 14, mean ± SD
Description: Quantitative RT-PCR: Total ribonucleic acid (RNA) was extracted from kidney samples using RNAiso. One μg of RNA was reverse-transcribed using a reaction mixture containing […] (mM) of magnesium chloride (MgCl2), 40 U RNase inhibitor, 0.5 mM dNTP, 6.28 µM random hexamer, 5× first strand buffer, 10 mM dithiothreitol and 200 U MMLV-RT in a final volume of 20 μL. The reaction was carried out for 1 hour at 37° C., followed by 5 minutes at 99° C. Real-time PCR was performed using real-time PCR DICE and TB Green™ Premix Ex Taq™ II. To calculate the relative […] (mRNA) expression level, the expression of each gene (e.g., α-SMA, TIMP-1, TGF-β and Collagen Type 1) was normalized to that of reference gene 36B4 (gene symbol: Rplp0). Information regarding the PCR-primer sets and the plate layout are described in Tables 1 and 2.

[5] = system: TGF-β signaling in HepG2 cells; assay: TGF-β-induced EMT protein expression and type II TGF-β receptor in HepG2 cells; type: cell-based, human
Description: The effects of 15-HEPE on TGF-β-induced signaling and cellular responses were determined. To test the effect of 15-HEPE on TGF-β-induced signaling, the activities of 15-HEPE to regulate TGF-β-stimulated Smad2 phosphorylation and nuclear translocation, both of which are key signaling events leading to TGF-β-induced cellular responses, were tested. One important biological activity of TGF-β is transcriptional activation of genes responsible for epithelial-mesenchymal transition (EMT), which is a crucial event in wound healing, tissue fibrosis, and cancer progression. The effect of 15-HEPE on TGFβ-induced epithelial mesenchymal transition related proteins (such as fibronectin, PAI-1, and N-cadherin etc.) expression in HepG2 and LXR cells were assessed. HepG2 cells (human hepatoma cell line) were treated in increasing doses of 15-HEPE stage II in DMEM containing 0.1% of FBS for 1 hour and continually stimulated with or without 200 picomolar (pM) of TGF-β for 48 hours. […] HepG2 cells (human hepatoma cell line) were treated in increasing doses of 15-HEPE stage II in DMEM containing 0.1% of FBS for 1 hour and continually stimulated with or without 200 picomolar (pM) of TGF-β for 48 hours. The two panels shown in FIG. 18A are two separate experiments run under the same experimental conditions.

[6] = system: TGF-β-stimulated intracellular signaling (SMAD2/3 phosphorylation) in LX2 cells; assay: TGF-β-stimulated SMAD2/3 phosphorylation in LX2 liver stellate cells; type: cell-based, human; details: 0 μM to 100 μM for 24 hours, then 30 min TGF-β stimulation
[7] = system: TβR-I, TβR-II, TβR-III, EGFR and caveolin-1 in Mv1Lu cells; assay: Sucrose density gradient analysis of TGF-β receptors in Mv1Lu plasma membranes; type: cell-based, mink
Description: The sucrose gradient fractions were then analyzed by Western blot analysis using anti-TβR-I (type I TGF-β receptor), anti-TβR-II (type II TGF-β receptor), anti-TβR-III (type III TGF-β receptor, betaglycan), anti-EGFR (epidermal growth factor receptor), and anti-caveolin-1 antibodies.
The sucrose gradient fractions were then analyzed by Western blot analysis using anti-TβR-I (type I TGF-β receptor-FIG. 18C), anti-TβR-II (type II TGF-β receptor-FIG. 18D), anti-TβR-III (type III TGF-β receptor, betaglycan-FIG. 18E), anti-EGFR (epidermal growth factor receptor-FIG. 18F), and anti-caveolin-1 antibodies (FIG. 18G).

[8] = 5 mg/kg PO QD Day 0-13, Day 14, mean ± SD
[9] = 50 mg/kg PO QD Day 0-13, Day 14, mean ± SD
[10] = 250 mg/kg PO QD Day 0-13, Day 14, mean ± SD
[11] = HepG2 cells, increasing doses, 1 hour, then with or without 200 pM TGF-β for 48 hours

SMILES: CC/C=C\C[C@H](O)/C=C/C=C\C/C=C\C/C=C\CCCC(=O)O [15(S)-HEPE, 15(S)-hydroxy-(5Z,8Z,11Z,13E,17Z)-eicosapentaenoic acid]
- adhesion of RBCs to heme-activated endothelium ([1]; 50 µM, p=0.01): significantly decreased
- adhesion of RBCs to heme-activated endothelium ([1]; 100 µM, p=0.001): significantly decreased
- adhesion of SCD patient RBCs to endothelium ([1]; 50 μM, p=0.03): significantly decreased
- adhesion of SCD patient RBCs to endothelium ([1]; 100 μM, p=0.01): significantly decreased

SMILES: CCCCCC(O)/C=C/C=C\C/C=C\CCCCCCC(=O)O (stereo not shown) [DS109, 15-hydroxy-eicosa-8Z, 11Z, 13E-trienoic acid]
- Body Weight (UUO mice [2]; [8]): 19.1 ± 0.9 g
- Left Kidney Weight (UUO mice [2]; [8]): 533 ± 138 mg
- Left Kidney-to-Body Weight Ratio (UUO mice [2]; [8]): 2.79 ± 0.65%
- Right Kidney Weight (UUO mice [2]; [8]): 137 ± 7 mg
- Right Kidney-to-Body Weight Ratio (UUO mice [2]; [8]): 0.71 ± 0.04%
- Body Weight (UUO mice [2]; [9]): 18.6 ± 0.6 g
- Left Kidney Weight (UUO mice [2]; [9]): 523 ± 91 mg
- Left Kidney-to-Body Weight Ratio (UUO mice [2]; [9]): 2.83 ± 0.50%
- Right Kidney Weight (UUO mice [2]; [9]): 135 ± 6 mg
- Right Kidney-to-Body Weight Ratio (UUO mice [2]; [9]): 0.73 ± 0.05%
- Body Weight (UUO mice [2]; [10]): 18.6 ± 0.7 g
- Left Kidney Weight (UUO mice [2]; [10]): 425 ± 105 mg
- Left Kidney-to-Body Weight Ratio (UUO mice [2]; [10]): 2.26 ± 0.53%
- Right Kidney Weight (UUO mice [2]; [10]): 130 ± 13 mg
- Right Kidney-to-Body Weight Ratio (UUO mice [2]; [10]): 0.70 ± 0.05%
- Sirius red-positive area (%)_Median (UUO mice [3]; 5 mg/kg PO QD Day 0-13, Day 14, median): 3.22 ± 1.47%
- Sirius red-positive area (%)_Median (UUO mice [3]; 50 mg/kg PO QD Day 0-13, Day 14, median): 3.28 ± 1.41%
- Sirius red-positive area (%)_Median (UUO mice [3]; 250 mg/kg PO QD Day 0-13, Day 14, median): 3.76 ± 0.81%
- Alpha-SMA mRNA expression level ([4]; 5 mg/kg PO QD Day 0-13): 3.87 ± 0.82
- Collagen Type 1 mRNA expression level ([4]; 5 mg/kg PO QD Day 0-13): 10.76 ± 1.45
- TGF-β mRNA expression level ([4]; 5 mg/kg PO QD Day 0-13): 4.29 ± 0.93
- TIMP-1 mRNA expression level ([4]; 5 mg/kg PO QD Day 0-13): 153.60 ± 37.12
- Alpha-SMA mRNA expression level ([4]; 50 mg/kg PO QD Day 0-13): 4.61 ± 3.15
- Collagen Type 1 mRNA expression level ([4]; 50 mg/kg PO QD Day 0-13): 15.23 ± 11.52
- TGF-β mRNA expression level ([4]; 50 mg/kg PO QD Day 0-13): 6.01 ± 4.77
- TIMP-1 mRNA expression level ([4]; 50 mg/kg PO QD Day 0-13): 167.70 ± 122.60
- Alpha-SMA mRNA expression level ([4]; 250 mg/kg PO QD Day 0-13): 4.85 ± 1.22
- Collagen Type 1 mRNA expression level ([4]; 250 mg/kg PO QD Day 0-13): 13.88 ± 1.91
- TGF-β mRNA expression level ([4]; 250 mg/kg PO QD Day 0-13): 5.48 ± 0.36
- TIMP-1 mRNA expression level ([4]; 250 mg/kg PO QD Day 0-13): 180.90 ± 23.12

SMILES: CC/C=C\CC(O)/C=C/C=C\C/C=C\C/C=C\CCCC(=O)O (stereo not shown) [15-HEPE, 15-hydroxy-eicosa-5Z,8Z,11Z,13E, 17Z-pentaenoic acid]
- TGF-β induced epithelial mesenchymal transition (EMT) (pro-fibrotic) protein production [5, 11]: blocked
- type II TGF-β receptor [5, 11]: induced degradation
- TGF-β signaling ([5]; liver cell lines (HepG2, LX2)): directly inhibit
- TGF-β-stimulated intracellular signaling (SMAD2/3 phosphorylation) [6]: inhibits
- localization and abundance of TβR-III, EGFR and caveolin-1 ([7]; 100 μM, 0, 1, 4, 24 hours): did not change
- abundance of TβR-I proteins ([7]; 100 μM, 37° C., 0, 1, 4, 24 hours): did not affect the abundance
- TβR-II degradation ([7]; 100 μM, 24 hours treatment): induce degradation
- translocation of TβR-I to lipid-raft ([7]; 100 μM, 24 hours treatment): induced translocation
- TβR-II translocation ([7]; 100 μM, from 1 to 4 hours): induced TβR-II translocation
